# What was measured:
# Type in all cases: in vivo
# [1] = test system: velvetleaf (Abutilon theophrasti); assay: Test C greenhouse herbicide test, pre- and postemergence
# Text: (§1) Seeds of plant species selected from blackgrass (Alopecurus myosuroides), ryegrass, Italian (Italian ryegrass, Lolium multiflorum), wheat (winter wheat, Triticum aestivum), galium (catchweed bedstraw, Galium aparine), corn (Zea mays), large crabgrass, large (large crabgrass, Digitaria sanguinalis), foxtail, giant (giant foxtail, Setaria faberii), johnsongrass (Sorghum halepense), lambsquarters (Chenopodium album), morningglory (Ipomoea coccinea), nutsedge, yellow (yellow nutsedge, Cyperus esculentus), pigweed (Amaranthus retroflexus), ragweed (common ragweed, Ambrosia elatior), soybean (Glycine max), barnyardgrass (Echinochloa crus-galli), oilseed rape (Brassica napus), waterhemp (common waterhemp, Amaranthus rudis), and velvetleaf (Abutilon theophrasti) were planted into a blend of loam soil and sand and treated preemergence with test chemicals formulated in a non-phytotoxic solvent mixture which included a surfactant.
# (§2) At the same time, plants selected from these crop and weed species and also chickweed (common chickweed, Stellaria media), kochia (Kochia scoparia), and oat, wild (wild oat, Avena fatua), were planted in pots containing Redi-Earth® planting medium (Scotts Company, 14111 Scottslawn Road, Marysville, Ohio 43041) comprising spaghnum peat moss, vermiculite, wetting agent and starter nutrients and treated with postemergence applications of test chemicals formulated in the same manner. Plants ranged in height from 2 to 18 cm (1- to 4-leaf stage) for postemergence treatments. Treated plants and controls were maintained in a greenhouse for 13 to 15 d, after which time all species were compared to controls and visually evaluated. Plant response ratings, summarized in Table C, are based on a scale of 0 to 100 where 0 is no effect and 100 is complete control. A dash (-) response means no test result.
# [2] = test system: galium (catchweed bedstraw, Galium aparine); assay: as above
# Text: as §1, §2
# [3] = test system: barnyardgrass (Echinochloa crus-galli); assay: as above
# Text: as §1, §2
# [4] = test system: ragweed (common ragweed, Ambrosia elatior); assay: Test A greenhouse herbicide test, pre- and postemergence
# Summary of the method: (§3)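 Visual injury ratings, 0 (no effect) to 100 (complete control), versus untreated plants after roughly 10 d in a greenhouse. Compounds, formulated in a surfactant-containing non-phytotoxic solvent, were sprayed on loam–sand soil after sowing (pre) or on one- to two-leaf plants 2–10 cm tall (post).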
# [5] = test system: wheat (Triticum aestivum); assay: as above; conditions: Postemergence
# Summary of the method: as §3
# [6] = test system: pigweed (Amaranthus retroflexus); assay: as above
# Summary of the method: as §3
# corn (Zea mays) = assay: as above; conditions: Postemergence
# Summary of the method: as §3
# [7] = test system: ryegrass, Italian (Italian ryegrass, Lolium multiflorum); assay: as above
# Summary of the method: as §3
# [8] = test system: barnyardgrass (Echinochloa crus-galli); assay: as above
# Summary of the method: as §3
# [9] = test system: foxtail, giant (giant foxtail, Setaria faberii); assay: as above
# Summary of the method: as §3
# kochia (Kochia scoparia) = assay: as above
# Summary of the method: as §3
# [10] = Postemergence, 31 g ai/ha, scale 0 to 100 (0 no effect, 100 complete control)
# [11] = Postemergence, 62 g ai/ha, 0 to 100 scale (0 no effect, 100 complete control)
# [12] = Postemergence, 250 g ai/ha, scale 0 to 100, 0 no effect, 100 complete control, 13 to 15 d
# [13] = postemergence, 125 g ai/ha, scale 0 to 100, 0 no effect, 100 complete control
# [14] = Postemergence, 125 g ai/ha, scale 0 to 100, 0 is no effect, 100 is complete control
# [15] = Postemergence, 125 g ai/ha, 0 to 100 scale where 0 is no effect and 100 is complete control
# [16] = Postemergence, 500 g ai/ha, visual rating after approx. 10 d, 0 to 100 scale (0 no effect, 100 complete control)
# [17] = Preemergence, 125 g ai/ha, 0 to 100 scale where 0 is no effect and 100 is complete control
# [18] = Preemergence, 500 g ai/ha, 0 to 100 scale where 0 is no effect and 100 is complete control
# [19] = 125 g ai/ha, 0 to 100 scale where 0 is no effect and 100 is complete control
# [20] = 500 g ai/ha, visual rating after approx. 10 d, 0 to 100 scale (0 no effect, 100 complete control)
# [21] = Postemergence, 250 g ai/ha, scale 0 to 100, 0 is no effect, 100 is complete control
# [22] = Postemergence, 125 g ai/ha, 0 to 100 scale, 0 no effect, 100 complete control
# [23] = Preemergence, 125 g ai/ha, visual injury rating, 0 to 100 scale (0 no effect, 100 complete control), approx. 10 d
# [24] = 125 g ai/ha, 0 to 100 scale, 0 no effect, 100 complete control
# [25] = Postemergence, 16 g ai/ha, scale 0 to 100 (0 no effect, 100 complete control)
# [26] = Postemergence, 31 g ai/ha, 0 to 100 scale (0 no effect, 100 complete control)
# [27] = postemergence, 62 g ai/ha, scale 0 to 100, 0 no effect, 100 complete control
# [28] = Postemergence, 500 g ai/ha, 0 to 100 scale, 0 is no effect, 100 is complete control
# [29] = Preemergence, 500 g ai/ha, 0 to 100 scale, 0 no effect, 100 complete control
# [30] = 500 g ai/ha, 0 to 100 scale, 0 is no effect, 100 is complete control
smiles,measurement,setting,value
Cc1nn(C)c(=O)c(-c2cccc3ccc(C#N)cc23)c1O [Compound 127],"Plant response rating, Velvetleaf",[1]; [10],20
same,Velvetleaf plant response rating,[1]; [11],30
same,"Plant response rating, Velvetleaf",[1]; [12],55
same,Velvetleaf plant response rating,[1]; [13],25
same,"Plant response rating, Galium",[2]; [10],75
same,Galium plant response rating,[2]; [11],80
same,"Plant response rating, Galium",[2]; [12],90
same,Galium plant response rating,[2]; [13],85
same,"Plant response rating, Barnyardgrass",[3]; [10],10
same,Barnyardgrass plant response rating,[3]; [11],20
same,"Plant response rating, Barnyardgrass",[3]; [14],25
same,"Plant response rating, Barnyardgrass",[3]; [12],25
same,"Plant response rating, Ragweed",[4]; [15],60
same,"Plant response rating, Ragweed",[4]; [16],80
same,Ragweed plant response rating,[4]; [17],30
same,"Plant response rating, Ragweed",[4]; [18],70
same,"Plant response rating, Wheat",[5]; [19],0
same,"Plant response rating, Wheat",[5]; [20],20
same,"Plant response rating, Pigweed",[6]; [15],90
same,"Plant response rating, Pigweed",[6]; [16],100
same,Pigweed plant response rating,[6]; [17],70
same,"Plant response rating, Pigweed",[6]; [18],100
same,"Plant response rating, Corn",corn (Zea mays); [19],0
same,"Plant response rating, Corn",corn (Zea mays); [20],10
same,"Plant response rating, Ryegrass, Italian",[7]; [15],80
same,"Plant response rating, Ryegrass, Italian",[7]; [16],90
same,"Ryegrass, Italian plant response rating",[7]; [17],60
same,"Plant response rating, Ryegrass, Italian",[7]; [18],90
same,"Plant response rating, Barnyardgrass",[8]; [15],10
same,"Plant response rating, Barnyardgrass",[8]; [16],50
same,Barnyardgrass plant response rating,[8]; [17],10
same,"Plant response rating, Barnyardgrass",[8]; [18],40
same,"Plant response rating, Foxtail, Giant",[9]; [15],10
same,"Plant response rating, Foxtail, Giant",[9]; [16],60
same,"Foxtail, Giant plant response rating",[9]; [17],50
same,"Plant response rating, Foxtail, Giant",[9]; [18],60
same,"Plant response rating, Kochia",kochia (Kochia scoparia); [15],70
same,"Plant response rating, Kochia",kochia (Kochia scoparia); [16],80
same,Kochia plant response rating,kochia (Kochia scoparia); [17],0
same,"Plant response rating, Kochia",kochia (Kochia scoparia); [18],90
CC(=O)Oc1c(C)nn(C)c(=O)c1-c1c([N+](=O)[O-])ccc2ccccc12 [Compound 164],"Plant response rating, Velvetleaf",[1]; [10],25
same,Velvetleaf plant response rating,[1]; [11],60
same,"Plant response rating, Velvetleaf",[1]; [21],70
same,Velvetleaf plant response rating,[1]; [13],25
same,"Plant response rating, Galium",[2]; [10],90
same,Galium plant response rating,[2]; [11],95
same,"Plant response rating, Galium",[2]; [21],100
same,Galium plant response rating,[2]; [13],100
same,"Plant response rating, Barnyardgrass",[3]; [10],10
same,Barnyardgrass plant response rating,[3]; [11],25
same,"Plant response rating, Barnyardgrass",[3]; [21],35
same,Barnyardgrass plant response rating,[3]; [13],30
same,"Plant response rating, Ragweed",[4]; [22],70
same,"Plant response rating, Ragweed",[4]; [16],100
same,"Plant response rating, Ragweed",[4]; [23],50
same,"Plant response rating, Ragweed",[4]; [18],90
same,"Plant response rating, Wheat",[5]; [24],0
same,"Plant response rating, Wheat",[5]; [20],0
same,"Plant response rating, Pigweed",[6]; [22],80
same,"Plant response rating, Pigweed",[6]; [16],80
same,"Plant response rating, Pigweed",[6]; [23],80
same,"Plant response rating, Pigweed",[6]; [18],100
same,"Plant response rating, Corn",corn (Zea mays); [24],0
same,"Plant response rating, Corn",corn (Zea mays); [20],20
same,"Plant response rating, Ryegrass, Italian",[7]; [22],70
same,"Plant response rating, Ryegrass, Italian",[7]; [16],90
same,"Plant response rating, Ryegrass, Italian",[7]; [23],60
same,"Plant response rating, Ryegrass, Italian",[7]; [18],100
same,"Plant response rating, Barnyardgrass",[8]; [22],20
same,"Plant response rating, Barnyardgrass",[8]; [16],20
same,"Plant response rating, Barnyardgrass",[8]; [23],10
same,"Plant response rating, Barnyardgrass",[8]; [18],20
same,"Plant response rating, Foxtail, Giant",[9]; [22],20
same,"Plant response rating, Foxtail, Giant",[9]; [16],30
same,"Plant response rating, Foxtail, Giant",[9]; [23],10
same,"Plant response rating, Foxtail, Giant",[9]; [18],40
same,"Plant response rating, Kochia",kochia (Kochia scoparia); [22],60
same,"Plant response rating, Kochia",kochia (Kochia scoparia); [16],90
same,"Plant response rating, Kochia",kochia (Kochia scoparia); [23],60
same,"Plant response rating, Kochia",kochia (Kochia scoparia); [18],100
COc1ccc2ccccc2c1-c1c(O)c(C)nn(C)c1=O [Compound 40],"Plant response rating, Velvetleaf",[1]; [25],5
same,Velvetleaf plant response rating,[1]; [26],5
same,"Plant response rating, Velvetleaf",[1]; [14],20
same,Velvetleaf plant response rating,[1]; [27],10
same,"Plant response rating, Galium",[2]; [25],30
same,Galium plant response rating,[2]; [26],80
same,"Plant response rating, Galium",[2]; [14],90
same,Galium plant response rating,[2]; [27],85
same,"Plant response rating, Barnyardgrass",[3]; [25],5
same,Barnyardgrass plant response rating,[3]; [26],5
same,"Plant response rating, Barnyardgrass",[3]; [14],25
same,Barnyardgrass plant response rating,[3]; [27],15
same,"Plant response rating, Ragweed",[4]; [15],70
same,Ragweed plant response rating,[4]; [28],90
same,Ragweed plant response rating,[4]; [17],30
same,"Plant response rating, Ragweed",[4]; [29],80
same,"Plant response rating, Wheat",[5]; [19],0
same,Wheat plant response rating,[5]; [30],50
same,"Plant response rating, Pigweed",[6]; [15],80
same,Pigweed plant response rating,[6]; [28],100
same,Pigweed plant response rating,[6]; [17],90
same,"Plant response rating, Pigweed",[6]; [29],100
same,"Plant response rating, Corn",corn (Zea mays); [19],0
same,Corn plant response rating,corn (Zea mays); [30],10
same,"Plant response rating, Ryegrass, Italian",[7]; [15],90
same,"Ryegrass, Italian plant response rating",[7]; [28],90
same,"Ryegrass, Italian plant response rating",[7]; [17],60
same,"Plant response rating, Ryegrass, Italian",[7]; [29],100
same,"Plant response rating, Barnyardgrass",[8]; [15],10
same,Barnyardgrass plant response rating,[8]; [28],60
same,Barnyardgrass plant response rating,[8]; [17],10
same,"Plant response rating, Barnyardgrass",[8]; [29],50
same,"Plant response rating, Foxtail, Giant",[9]; [15],60
same,"Foxtail, Giant plant response rating",[9]; [28],80
same,"Foxtail, Giant plant response rating",[9]; [17],40
same,"Plant response rating, Foxtail, Giant",[9]; [29],70
same,"Plant response rating, Kochia",kochia (Kochia scoparia); [15],80
same,Kochia plant response rating,kochia (Kochia scoparia); [28],90
same,Kochia plant response rating,kochia (Kochia scoparia); [17],50
same,"Plant response rating, Kochia",kochia (Kochia scoparia); [29],80

# From US10597388B2, “Pyridazinone herbicides” (FMC CORPORATION, priority 2014, dated 2020)
